# Source: US20210115104A1, “AMYLIN ANALOGUES” (Zealand Pharma A/S, priority 2015, published 2021)
# *1 amine or outer side, *2 acyl side, *3 side chain or, on linkers, in order; H or OH if unused. Where a SMILES comes first, the peptide text is derived from it. Bridges are numbered along the chain shown (N, C = ends). [ ]: non-standard residue; d: D form. The star is where a group is joined. C20 diacid = O=C(O)CCCCCCCCCCCCCCCCCCC(=O)*; γGlu = O=C(O)[C@H](CCC(=O)[*:2])N[*:1]; Hyp = O=C(O)[C@@H]1C[C@@H](O)CN1; NMeI = CC[C@H](C)[C@H](NC)C(=O)O; Aad = N[C@@H](CCCC(=O)O)C(=O)O; Sar = CNCC(=O)O
# Legend:
# [1] = molecular target: T1, human calcitonin receptor (hCTR2) (Homo sapiens, UniProt P30988); assay: hCTR2 cAMP assay (AlphaScreen) in COS7 cells; assay type: cell-based; conditions: cAMP induction, COS7 cells expressing hCTR2; Table 1; read-out: hCTR2 EC50
# T1 construct: expressed in transfected cells
# T1 sequence (P30988 25-474): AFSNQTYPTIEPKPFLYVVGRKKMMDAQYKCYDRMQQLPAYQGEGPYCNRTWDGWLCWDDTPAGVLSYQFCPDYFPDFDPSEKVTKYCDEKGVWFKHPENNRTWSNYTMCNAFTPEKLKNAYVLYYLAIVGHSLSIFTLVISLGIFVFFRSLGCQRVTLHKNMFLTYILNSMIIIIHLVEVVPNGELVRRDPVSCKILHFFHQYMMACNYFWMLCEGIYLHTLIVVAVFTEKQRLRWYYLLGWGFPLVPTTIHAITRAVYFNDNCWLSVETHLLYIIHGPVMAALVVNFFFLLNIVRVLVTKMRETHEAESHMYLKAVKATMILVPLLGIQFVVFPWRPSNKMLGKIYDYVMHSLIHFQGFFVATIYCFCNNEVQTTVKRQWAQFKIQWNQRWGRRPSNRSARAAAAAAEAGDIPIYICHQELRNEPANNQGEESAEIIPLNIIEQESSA
# Outline: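 cAMP induction, read by AlphaScreen after lysis, gives EC50 values via 4PL curve fitting. Peptides were applied at rising concentrations for 15 min at 37 °C, with IBMX and 0.1% casein in HEPES-buffered Tyrode pH 7.4, to COS7 cells (no endogenous RAMPs) stably expressing human CTR2.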
# [2] = molecular target: T2, human amylin receptor 3 (hAMYR3), hCTR2 co-expressed with hRAMP3 (Homo sapiens, UniProt O60896+P30988); assay: hAMYR3 cAMP assay (AlphaScreen) in COS7 cells; assay type: cell-based; conditions: cAMP induction, COS7 cells expressing hAMYR3; Table 1; read-out: hAMYR3 EC50
# T2 construct: expressed in transfected cells
# T2 sequence (P30988 25-474): T1 sequence (P30988 25-474)
# T2 sequence (O60896 24-148 partner): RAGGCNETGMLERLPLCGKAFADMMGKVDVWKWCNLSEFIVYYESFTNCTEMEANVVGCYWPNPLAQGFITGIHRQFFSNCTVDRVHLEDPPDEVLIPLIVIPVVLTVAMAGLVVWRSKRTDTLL
# Outline: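 EC50 values derive from 4PL curve fits of cAMP (AlphaScreen) in lysates of RAMP-naive COS7 cells stably carrying hCTR2 plus hRAMP3. Peptide dilution series were applied for 15 min at 37 °C in pH 7.4 Tyrode buffer containing 100 µM IBMX and 0.1% casein.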
SMILES,EC50 [1],EC50 [2]
"CC[C@H](C)[C@@H](C(=O)N[C@@H](CC(C)C)C(=O)N[C@@H](CO)C(=O)N[C@@H](CO)C(=O)N[C@H](C(=O)N[C@@H](CCC(=O)O)C(=O)N[C@H](C(=O)NCC(=O)N[C@@H](CO)C(=O)N[C@@H](CCCC(=O)O)C(=O)N[C@H](C(=O)N1C[C@H](O)C[C@H]1C(N)=O)[C@@H](C)O)C(C)C)[C@@H](C)O)N(C)C(=O)[C@H](C)NC(=O)CN(C)C(=O)[C@H](Cc1ccccc1)NC(=O)[C@H](CO)NC(=O)[C@H](CO)NC(=O)[C@H](CCCNC(=N)N)NC(=O)[C@H](CCC(N)=O)NC(=O)[C@H](CC(C)C)NC(=O)[C@H](Cc1ccccc1)NC(=O)[C@H](Cc1c[nH]cn1)NC(=O)[C@H](C)NC(=O)[C@H](CC(C)C)NC(=O)[C@H](CCCNC(=N)N)NC(=O)[C@H](CCC(N)=O)NC(=O)[C@@H](NC(=O)[C@H](C)NC(=O)[C@@H]1CSSC[C@H](NC(=O)[C@H](CCCNC(=N)N)NC(=O)CC[C@H](NC(=O)CCCCCCCCCCCCCCCCCCC(=O)O)C(=O)O)C(=O)N[C@@H](CC(N)=O)C(=O)N[C@@H]([C@@H](C)O)C(=O)N[C@@H](C)C(=O)N[C@@H]([C@@H](C)O)C(=O)N1)[C@@H](C)O [Compound 75, [19CD]-isoGlu-R-C( )-NTAT-C( )-ATQRLAHFLQRSSF-Gly(Me)-A-Ile(Me)-LSSTEVGS-Aad-T-Hyp-NH2] ({C20 diacid-γGlu}-RCNTATCATQRLAHFLQRSSF[Sar]A[NMeI]LSSTEVGS[Aad]T[Hyp]-NH2; disulfide 2-7)",0.36 nM,0.26 nM
"CC[C@H](C)[C@@H](C(=O)N[C@@H](CC(C)C)C(=O)N[C@@H](CO)C(=O)N[C@@H](CO)C(=O)N[C@H](C(=O)N[C@@H](CCC(=O)O)C(=O)N[C@H](C(=O)NCC(=O)N[C@@H](CO)C(=O)N[C@@H](CC(N)=O)C(=O)N[C@H](C(=O)N1CCC[C@H]1C(N)=O)[C@@H](C)O)C(C)C)[C@@H](C)O)N(C)C(=O)[C@H](C)NC(=O)CN(C)C(=O)[C@H](Cc1ccccc1)NC(=O)[C@H](CO)NC(=O)[C@H](CO)NC(=O)[C@H](CCCNC(=N)N)NC(=O)[C@H](CCC(N)=O)NC(=O)[C@H](CC(C)C)NC(=O)[C@H](Cc1ccccc1)NC(=O)[C@H](Cc1c[nH]cn1)NC(=O)[C@H](C)NC(=O)[C@H](CC(C)C)NC(=O)[C@H](CCCNC(=N)N)NC(=O)[C@H](CCC(=O)O)NC(=O)[C@@H](NC(=O)[C@H](C)NC(=O)[C@@H]1CSSC[C@H](NC(=O)[C@H](CCCNC(=N)N)NC(=O)CC[C@H](NC(=O)CCCCCCCCCCCCCCCCCCC(=O)O)C(=O)O)C(=O)NCC(=O)N[C@@H]([C@@H](C)O)C(=O)N[C@@H](C)C(=O)N[C@@H]([C@@H](C)O)C(=O)N1)[C@@H](C)O [Compound 78, [19CD]-isoGlu-R-C( )-GTAT-C( )-ATERLAHFLQRSSF-Gly(Me)-A-Ile(Me)-LSSTEVGSNTP-NH2] ({C20 diacid-γGlu}-RCGTATCATERLAHFLQRSSF[Sar]A[NMeI]LSSTEVGSNTP-NH2; disulfide 2-7)",0.15 nM,0.24 nM
"CC[C@H](C)[C@@H](C(=O)N[C@@H](CC(C)C)C(=O)N[C@@H](CO)C(=O)N[C@@H](CO)C(=O)N[C@H](C(=O)N[C@@H](CCC(=O)O)C(=O)N[C@H](C(=O)NCC(=O)N[C@@H](CO)C(=O)N[C@H](C(=O)N[C@H](C(=O)N1CCC[C@H]1C(N)=O)[C@@H](C)O)[C@@H](C)O)C(C)C)[C@@H](C)O)N(C)C(=O)[C@H](C)NC(=O)CN(C)C(=O)[C@H](Cc1ccccc1)NC(=O)[C@H](CO)NC(=O)[C@H](CO)NC(=O)[C@H](CCCNC(=N)N)NC(=O)[C@H](CCC(N)=O)NC(=O)[C@H](CC(C)C)NC(=O)[C@H](Cc1ccccc1)NC(=O)[C@H](CC(=O)O)NC(=O)[C@H](C)NC(=O)[C@H](CC(C)C)NC(=O)[C@H](CCCNC(=N)N)NC(=O)[C@H](CCC(N)=O)NC(=O)[C@@H](NC(=O)[C@H](C)NC(=O)[C@@H]1CSSC[C@H](NC(=O)[C@H](CCCNC(=N)N)NC(=O)CC[C@H](NC(=O)CCCCCCCCCCCCCCCCCCC(=O)O)C(=O)O)C(=O)N[C@@H](CC(N)=O)C(=O)N[C@@H]([C@@H](C)O)C(=O)N[C@@H](C)C(=O)N[C@@H]([C@@H](C)O)C(=O)N1)[C@@H](C)O [Compound 82, [19CD]-isoGlu-R-C( )-NTAT-C( )-ATQRLADFLQRSSF-Gly(Me)-A-Ile(Me)-LSSTEVGSTTP-NH2] ({C20 diacid-γGlu}-RCNTATCATQRLADFLQRSSF[Sar]A[NMeI]LSSTEVGSTTP-NH2; disulfide 2-7)",0.21 nM,0.53 nM

# Now those with a lower EC50 [1], led by results:
EC50 [1],EC50 [2],SMILES
0.13 nM,0.32 nM,"CC[C@H](C)[C@@H](C(=O)N[C@@H](CC(C)C)C(=O)N[C@@H](CO)C(=O)N[C@@H](CO)C(=O)N[C@H](C(=O)N[C@@H](CCC(=O)O)C(=O)N[C@H](C(=O)NCC(=O)N[C@@H](CO)C(=O)N[C@H](C(=O)N[C@H](C(=O)N1C[C@H](O)C[C@H]1C(N)=O)[C@@H](C)O)[C@@H](C)O)C(C)C)[C@@H](C)O)N(C)C(=O)[C@H](C)NC(=O)CN(C)C(=O)[C@H](Cc1ccccc1)NC(=O)[C@H](CO)NC(=O)[C@H](CO)NC(=O)[C@H](CCCNC(=N)N)NC(=O)[C@H](CCC(N)=O)NC(=O)[C@H](CC(C)C)NC(=O)[C@H](Cc1ccccc1)NC(=O)[C@H](CC(=O)O)NC(=O)[C@H](C)NC(=O)[C@H](CC(C)C)NC(=O)[C@H](CCCNC(=N)N)NC(=O)[C@H](CCC(N)=O)NC(=O)[C@@H](NC(=O)[C@H](C)NC(=O)[C@@H]1CSSC[C@H](NC(=O)[C@H](CCCNC(=N)N)NC(=O)CC[C@H](NC(=O)CCCCCCCCCCCCCCCCCCC(=O)O)C(=O)O)C(=O)N[C@@H](CC(N)=O)C(=O)N[C@@H]([C@@H](C)O)C(=O)N[C@@H](C)C(=O)N[C@@H]([C@@H](C)O)C(=O)N1)[C@@H](C)O [Compound 83, [19CD]-isoGlu-R-C( )-NTAT-C( )-ATQRLADFLQRSSF-Gly(Me)-A-Ile(Me)-LSSTEVGSTT-Hyp-NH2] ({C20 diacid-γGlu}-RCNTATCATQRLADFLQRSSF[Sar]A[NMeI]LSSTEVGSTT[Hyp]-NH2; disulfide 2-7)"
0.1 nM,0.14 nM,"CC[C@H](C)[C@@H](C(=O)N[C@@H](CC(C)C)C(=O)N[C@@H](CO)C(=O)N[C@@H](CO)C(=O)N[C@H](C(=O)N[C@@H](CCC(=O)O)C(=O)N[C@H](C(=O)NCC(=O)N[C@@H](CO)C(=O)N[C@@H](CO)C(=O)N[C@H](C(=O)N1CCC[C@H]1C(N)=O)[C@@H](C)O)C(C)C)[C@@H](C)O)N(C)C(=O)[C@H](C)NC(=O)CN(C)C(=O)[C@H](Cc1ccccc1)NC(=O)[C@H](CO)NC(=O)[C@H](CO)NC(=O)[C@H](CCCNC(=N)N)NC(=O)[C@H](CCC(N)=O)NC(=O)[C@H](CC(C)C)NC(=O)[C@H](Cc1ccccc1)NC(=O)[C@H](Cc1c[nH]cn1)NC(=O)[C@H](C)NC(=O)[C@H](CC(C)C)NC(=O)[C@H](CCCNC(=N)N)NC(=O)[C@H](CCC(N)=O)NC(=O)[C@@H](NC(=O)[C@H](C)NC(=O)[C@@H]1CSSC[C@H](NC(=O)[C@H](CCCNC(=N)N)NC(=O)CC[C@H](NC(=O)CCCCCCCCCCCCCCCCCCC(=O)O)C(=O)O)C(=O)N[C@@H](CC(N)=O)C(=O)N[C@@H]([C@@H](C)O)C(=O)N[C@@H](C)C(=O)N[C@@H]([C@@H](C)O)C(=O)N1)[C@@H](C)O [Compound 85, [19CD]-isoGlu-R-C( )-NTAT-C( )-ATQRLAHFLQRSSF-Gly(Me)-A-Ile(Me)-LSSTEVGSSTP-NH2] ({C20 diacid-γGlu}-RCNTATCATQRLAHFLQRSSF[Sar]A[NMeI]LSSTEVGSSTP-NH2; disulfide 2-7)"
